Test results from patent US20240327334A1, “Covalent Inhibitors As Antiviral Agents” (Enanta Pharmaceuticals, Inc., priority 2022, published 2024).

Tests used:
[1] = molecular target: SARS-CoV-2 Papain-like (PLpro) protease (Severe acute respiratory syndrome coronavirus 2, UniProt P0DTD1); experiment: SARS-CoV-2 Papain-like (PLpro) protease biochemical enzyme inhibition assay (ubiquitin-fluorophore substrate, Ub-R110); details: Ub-R110 substrate; run in duplicate; read-out: PLpro IC50
SARS-CoV-2 replicon = experiment: microbe, parasite or virus in culture; assay type: cell-based; details: Severe acute respiratory syndrome coronavirus 2, Huh-7

Structure (SMILES) | IC50 [1] | EC50 (SARS-CoV-2 replicon)
Cc1cccnc1C#C[C@H](C)NC(=O)C(=O)NCc1ccccc1C(=O)NC1(c2cc(F)cc(-c3cnn(C4CC4)c3)c2)CC1 [Example 266] | < 100 nM | < 1000 nM
CC(C)Oc1cccnc1C#CCNC(=O)C(=O)NCc1ccccc1C(=O)NC1(c2cc(F)cc(-c3cnn(C4CC4)c3)c2)CC1 [Example 267] | < 100 nM | < 1000 nM
Cn1cc2cc(C3(NC(=O)c4ccccc4CNC(=O)C(=O)NCC#Cc4ncccc4Cl)CC3)ccc2n1 [Example 269] | < 100 nM | < 1000 nM
COc1cccnc1C#CCNC(=O)C(=O)NCc1ccccc1C(=O)NC1(c2ccc3nn(C)cc3c2)CC1 [Example 270] | < 100 nM | < 1000 nM
Cc1cccnc1C#CCNC(=O)C(=O)NCc1ccccc1C(=O)NC1(c2ccc3nn(C)cc3c2)CC1 [Example 271] | < 100 nM | < 1000 nM
C[C@@H](C#Cc1ncccc1Cl)NC(=O)C(=O)NCc1ccccc1C(=O)NC1(c2ccc3nn(C)cc3c2)CC1 [Example 272] | < 100 nM | < 1000 nM
COc1cccnc1C#C[C@H](C)NC(=O)C(=O)NCc1ccccc1C(=O)NC1(c2ccc3nn(C)cc3c2)CC1 [Example 273] | < 100 nM | < 1000 nM
Cc1cccnc1C#C[C@H](C)NC(=O)C(=O)NCc1ccccc1C(=O)NC1(c2ccc3nn(C)cc3c2)CC1 [Example 274] | < 100 nM | < 1000 nM
Cc1nn(C)cc1-c1cc(F)cc(C2(NC(=O)c3ccccc3CNC(=O)C(=O)N[C@@H](C)C#Cc3ncccc3Cl)CC2)c1 [Example 275] | < 100 nM | < 1000 nM
CC(C)n1ncnc1C#C[C@H](C)NC(=O)C(=O)NCc1ccccc1C(=O)NC1(c2cc(F)cc(-c3cnn(C4CC4)c3)c2)CC1 [Example 276] | < 100 nM | < 1000 nM
CC(C)n1ccnc1C#CCNC(=O)C(=O)NCc1ccccc1C(=O)NC1(c2cc(F)cc(-c3cnn(C4CC4)c3)c2)CC1 [Example 277] | < 100 nM | < 1000 nM
COc1cc(C2(NC(=O)c3ccccc3CNC(=O)C(=O)N[C@@H](C)C#Cc3ncccc3Cl)CC2)cc2cn(C3CC3)nc12 [Example 279] | < 100 nM | < 1000 nM
C[C@@H](C#Cc1ncccc1Cl)NC(=O)C(=O)NCc1ccccc1C(=O)NC1(c2cc(F)cc(-c3cnn(CC(C)(C)O)c3)c2)CC1 [Example 280] | < 100 nM | < 1000 nM
CC(C)(O)Cn1cc(-c2cc(F)cc(C3(NC(=O)c4ccccc4CNC(=O)C(=O)NCC#Cc4ncccc4Cl)CC3)c2)cn1 [Example 281] | < 100 nM | < 1000 nM
CC(C)(O)c1cccc(-c2cc(C3(NC(=O)c4ccccc4CNC(=O)C(=O)NCC#N)CC3)c3ccccc3c2)n1 [Example 283] | < 100 nM | < 1000 nM
Cc1n[nH]cc1-c1cc(C2(NC(=O)c3ccccc3CNC(=O)C(=O)NCC#N)CC2)c2ccccc2c1 [Example 284] | < 100 nM | < 1000 nM
N#CCNC(=O)C(=O)NCc1ccccc1C(=O)NC1(c2cc(-c3cnn(C(F)F)c3)cc3ccccc23)CC1 [Example 285] | < 100 nM | < 1000 nM
N#CCNC(=O)C(=O)NCc1ccccc1C(=O)NC1(c2cc(-c3cnn(CC(F)F)c3)cc3ccccc23)CC1 [Example 286] | < 100 nM | < 1000 nM
CC(C)(O)c1ncc(-c2cc(C3(NC(=O)c4ccccc4CNC(=O)C(=O)NCC#N)CC3)c3ccccc3c2)s1 [Example 287] | < 100 nM | < 1000 nM
Cc1n[nH]c(C)c1-c1cc(C2(NC(=O)c3ccccc3CNC(=O)C(=O)NCC#N)CC2)c2ccccc2c1 [Example 288] | < 100 nM | 1000 to 10000 nM
Cn1ccc(-c2cc(C3(NC(=O)c4ccccc4CNC(=O)C(=O)NCC#N)CC3)c3ccccc3c2)n1 [Example 290] | < 100 nM | < 1000 nM
N#CCNC(=O)C(=O)NCc1ccccc1C(=O)NC1(c2cc(-c3ccn(C(F)F)n3)cc3ccccc23)CC1 [Example 293] | < 100 nM | < 1000 nM
N#CCNC(=O)C(=O)NCc1ccccc1C(=O)NC1(c2cc(C#N)cc3ccccc23)CC1 [Example 294] | < 100 nM | < 1000 nM
Cc1nn(C)c(C)c1-c1cc(F)cc(C2(NC(=O)c3ccccc3CNC(=O)C(=O)NCC#Cc3nccs3)CC2)c1F [Example 295] | < 100 nM | < 1000 nM
O=C(NCC#Cc1nccs1)C(=O)NCc1ccccc1C(=O)NC1(c2cc(-c3ccn(C(F)F)n3)cc(F)c2F)CC1 [Example 296] | < 100 nM | < 1000 nM

Structure (SMILES) | IC50 [1] | EC50 (SARS-CoV-2 replicon)
Cc1nn(C)c(C)c1-c1cc(F)c(F)c(C2(NC(=O)c3ccccc3CNC(=O)C(=O)NCC#Cc3nccs3)CC2)c1 [Example 297] | < 100 nM | < 1000 nM
Cc1nn(C)c(C)c1-c1cc(C2(NC(=O)c3ccccc3CNC(=O)C(=O)N[C@@H](C)C#Cc3nccs3)CC2)cc2ccccc12 [Example 298] | < 100 nM | < 1000 nM
Cc1nn(C)c(C)c1-c1cc(C2(NC(=O)c3ccccc3CNC(=O)C(=O)NCC#Cc3nccs3)CC2)cc2ccccc12 [Example 299] | < 100 nM | < 1000 nM
Cc1nn(C)c(C)c1-c1cc(C2(NC(=O)c3ccccc3CNC(=O)C(=O)NCC#Cc3nccs3)CC2)c2ccccc2c1 [Example 300] | < 100 nM | < 1000 nM
N#Cc1cc(-c2cnn(C3CC3)c2)c(F)c(C2(NC(=O)c3ccccc3CNC(=O)C(=O)NCC#Cc3nccs3)CC2)c1 [Example 301] | < 100 nM | < 1000 nM
C#CCNC(=O)C(=O)NCc1ccccc1C(=O)NC1(c2cc(-c3cnn(C4CC4)c3)cc(Cl)c2F)CC1 [Example 302] | < 100 nM | < 1000 nM
C#CCNC(=O)C(=O)NCc1ccccc1C(=O)NC1(c2cc(-c3cccs3)cc(Cl)c2F)CC1 [Example 303] | < 100 nM | < 1000 nM
N#CCNC(=O)C(=O)NCc1ccccc1C(=O)NC1(c2cc(-c3cccs3)cc(Cl)c2F)CC1 [Example 304] | < 100 nM | 1000 to 10000 nM
O=C(NCC#Cc1nccs1)C(=O)NCc1ccccc1C(=O)NC1(c2cc(-c3ccn(C4CC4)n3)cc(F)c2F)CC1 [Example 305] | < 100 nM | < 1000 nM
N#CCNC(=O)C(=O)NCc1ccccc1C(=O)NC1(c2cc(-c3ccn(C4CC4)n3)cc(F)c2F)CC1 [Example 306] | < 100 nM | < 1000 nM
N#CCNC(=O)C(=O)NCc1ccccc1C(=O)NC1(c2cc(-c3cnn(C4CC4)c3)c3ccccc3c2)CC1 [Example 307] | < 100 nM | 1000 to 10000 nM
N#CCNC(=O)C(=O)NCc1ccccc1C(=O)NC1(c2cccc3c(C#N)cccc23)CC1 [Example 308] | < 100 nM | < 1000 nM
N#CCNC(=O)C(=O)NCc1ccccc1C(=O)NC1(c2cccc3c(Br)cccc23)CC1 [Example 310] | < 100 nM | < 1000 nM
C#CCNC(=O)C(=O)NCc1ccccc1C(=O)NC1(c2cc(F)cc(-c3cnn(C4CC4)c3)c2F)CC1 [Example 311] | < 100 nM | < 1000 nM
N#CCNC(=O)C(=O)NCc1ccccc1C(=O)NC1(c2cc(F)cc(-c3cnn(C4CC4)c3)c2F)CC1 [Example 312] | < 100 nM | 1000 to 10000 nM
O=C(NCC#Cc1nccs1)C(=O)NCc1ccccc1C(=O)NC1(c2cc(F)cc(-c3cnn(C4CC4)c3)c2F)CC1 [Example 313] | < 100 nM | < 1000 nM
CN1C[C@H](F)C[C@H]1COc1ccc(CNC(=O)C(=O)NCC#N)c(C(=O)NC2(c3cccc4ccccc34)CC2)c1 [Example 318] | < 100 nM | < 1000 nM
CC1(O)CN(c2cc(C3(NC(=O)c4ccccc4CNC(=O)C(=O)NCC#N)CC3)c3ccccc3c2)C1 [Example 319] | < 100 nM | 1000 to 10000 nM
N#CCNC(=O)C(=O)NCc1ccc(OCCO)cc1C(=O)NC1(c2cccc3ccccc23)CC1 [Example 320] | < 100 nM | < 1000 nM
NC(=O)C(=O)NCc1ccccc1C(=O)NC1(c2cc(-c3cnn(C4CC4)c3)cc3ccccc23)CC1 [Example 321] | < 100 nM | 1000 to 10000 nM
CN1C[C@H](F)CC1COc1ccc(CNC(=O)C(=O)NCC#N)c(C(=O)NC2(c3cc(-c4cnn(C5CC5)c4)cc4ccccc34)CC2)c1 (some centres unmarked) [Example 322] | < 100 nM | < 1000 nM
C[C@@H](C#Cc1nccs1)NC(=O)C(=O)NCc1ccccc1C(=O)NC1(c2ccc3nn(CC(F)(F)F)cc3c2)CC1 [Example 323] | < 100 nM | < 1000 nM
COCC1CCCN1c1cc(C2(NC(=O)c3ccccc3CNC(=O)C(=O)NCC#N)CC2)c2ccccc2c1 (centres unmarked) [Example 324] | < 100 nM | 1000 to 10000 nM
CN1CC(COc2ccc(CNC(=O)C(=O)NCC#N)c(C(=O)NC3(c4cccc5ccccc45)CC3)c2)C1 [Example 326] | < 100 nM | 1000 to 10000 nM
